Results as given in the supplement of paper PMC10307832.

What was measured:
Experiment in all cases: relative viability (nuclei count vs DMSO), 5 days (fraction); higher = more cells survive
[1] = tested on: NCI-H727
How it was run: (§1)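 A single step with final 0.05% Triton X-100, 1% formaldehyde and 1 ug/ml Hoechst fixed the cells and stained nuclei 5 days after treatment. Lung cancer cell lines in 1536-well plates had been treated by pin tool the day after seeding with one drug alone or a fixed anchor-drug dose plus five library-drug doses (not always all listed) in √10 steps, and nuclei were counted on 4× images. Relative viability is the ratio of nuclei in treated wells to nuclei in vehicle wells, taken as the median of duplicate plates.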

[2] = tested on: HOP-62
How it was run: as §1

[3] = tested on: NCI-H1355
How it was run: as §1

[4] = tested on: HCC-827
How it was run: as §1

[5] = tested on: NCI-H1755
How it was run: as §1

[6] = tested on: HCC-366
How it was run: as §1

[7] = tested on: CAL-12T
How it was run: as §1

[8] = tested on: HARA
How it was run: as §1

[9] = tested on: NCI-H23
How it was run: as §1

[10] = tested on: NCI-H1975
How it was run: as §1

[11] = tested on: NCI-H522
How it was run: as §1

[12] = tested on: NCI-H1437
How it was run: as §1

[13] = tested on: NCI-H1915
How it was run: as §1

[14] = tested on: LCLC-103H
How it was run: as §1

[15] = tested on: A-427
How it was run: as §1

[16] = tested on: NCI-H460
How it was run: as §1

[17] = tested on: EMC-BAC-2
How it was run: as §1

[18] = tested on: NCI-H1792
How it was run: as §1

[19] = tested on: NCI-H1395
How it was run: as §1

C[C@@H]1CN(CC(=O)Nc2ccc3c(c2)Cc2cccc(-c4cc(=O)cc(N5CCOCC5)o4)c2S3)C[C@H](C)O1 + NC(=O)Nc1cc(-c2cccc(F)c2)sc1C(=O)N[C@H]1CCCNC1 [AZD7762] (partner 0.2 µM)
relative viability ([1]; first compound 0.04 µM): 0.525 | relative viability ([1]; first compound 0.1265 µM): 0.625 | relative viability ([1]; first compound 0.4 µM): 0.501 | relative viability ([1]; first compound 4 µM): 0.7 | relative viability ([2]; first compound 0.04 µM): 0.445 | relative viability ([2]; first compound 0.1265 µM): 0.599 | relative viability ([2]; first compound 0.4 µM): 0.739 | relative viability ([2]; first compound 4 µM): 0.624 | relative viability ([3]; first compound 0.04 µM): 0.799 | relative viability ([3]; first compound 0.1265 µM): 0.682 | relative viability ([3]; first compound 0.4 µM): 0.671 | relative viability ([3]; first compound 4 µM): 0.62 | relative viability ([4]; first compound 0.04 µM): 0.205 | relative viability ([4]; first compound 0.1265 µM): 0.188 | relative viability ([4]; first compound 0.4 µM): 0.201 | relative viability ([4]; first compound 4 µM): 0.161 | relative viability ([5]; first compound 0.04 µM): 0.422 | relative viability ([5]; first compound 0.1265 µM): 0.44 | relative viability ([5]; first compound 0.4 µM): 0.494 | relative viability ([5]; first compound 4 µM): 0.445 | relative viability ([6]; first compound 0.04 µM): 0.247 | relative viability ([6]; first compound 0.1265 µM): 0.253 | relative viability ([6]; first compound 0.4 µM): 0.163 | relative viability ([6]; first compound 4 µM): 0.184 | relative viability ([7]; first compound 0.04 µM): 0.644 | relative viability ([7]; first compound 0.1265 µM): 0.565 | relative viability ([7]; first compound 0.4 µM): 0.594 | relative viability ([7]; first compound 4 µM): 0.38 | relative viability ([8]; first compound 0.04 µM): 0.296 | relative viability ([8]; first compound 0.1265 µM): 0.259 | relative viability ([8]; first compound 0.4 µM): 0.227 | relative viability ([8]; first compound 4 µM): 0.329 | relative viability ([9]; first compound 0.04 µM): 0.238 | relative viability ([9]; first compound 0.1265 µM): 0.22 | relative viability ([9]; first compound 0.4 µM): 0.226 | relative viability ([9]; first compound 4 µM): 0.18 | relative viability ([10]; first compound 0.04 µM): 0.729 | relative viability ([10]; first compound 0.1265 µM): 0.608 | relative viability ([10]; first compound 0.4 µM): 0.624 | relative viability ([10]; first compound 4 µM): 0.585 | relative viability ([11]; first compound 0.04 µM): 0.526 | relative viability ([11]; first compound 0.1265 µM): 0.743 | relative viability ([11]; first compound 0.4 µM): 0.908 | relative viability ([11]; first compound 4 µM): 0.814 | relative viability ([12]; first compound 0.04 µM): 1.08 | relative viability ([12]; first compound 0.1265 µM): 1.09 | relative viability ([12]; first compound 0.4 µM): 1.12 | relative viability ([12]; first compound 4 µM): 0.95 | relative viability ([13]; first compound 0.04 µM): 0.575 | relative viability ([13]; first compound 0.1265 µM): 0.727 | relative viability ([13]; first compound 0.4 µM): 0.735 | relative viability ([13]; first compound 4 µM): 0.515 | relative viability ([14]; first compound 0.04 µM): 0.798 | relative viability ([14]; first compound 0.1265 µM): 0.755 | relative viability ([14]; first compound 0.4 µM): 0.761 | relative viability ([14]; first compound 4 µM): 0.631 | relative viability ([15]; first compound 0.04 µM): 0.855 | relative viability ([15]; first compound 0.1265 µM): 0.831 | relative viability ([15]; first compound 0.4 µM): 0.73 | relative viability ([15]; first compound 4 µM): 0.635 | relative viability ([16]; first compound 0.04 µM): 0.617 | relative viability ([16]; first compound 0.1265 µM): 0.638 | relative viability ([16]; first compound 0.4 µM): 0.63 | relative viability ([16]; first compound 4 µM): 0.368 | relative viability ([17]; first compound 0.04 µM): 1.1 | relative viability ([17]; first compound 0.1265 µM): 1.15 | relative viability ([17]; first compound 0.4 µM): 1.08 | relative viability ([17]; first compound 4 µM): 1.24 | relative viability ([18]; first compound 0.04 µM): 0.662 | relative viability ([18]; first compound 0.1265 µM): 0.638 | relative viability ([18]; first compound 0.4 µM): 0.564 | relative viability ([18]; first compound 4 µM): 0.314 | relative viability ([19]; first compound 0.1265 µM): 0.425 | relative viability ([19]; first compound 0.4 µM): 0.411 | relative viability ([19]; first compound 4 µM): 0.406
